Experimental data reported in patent US20160220567A1, “COMPOSITION FOR TREATING OR PREVENTING BONE DISEASES, COMPRISING HALOFUGINONE AS ACTIVE INGREDIENT” (THE CATHOLIC UNIVERSITY OF KOREA INDUSTRY-ACADEMIC …, priority 2013, published 2016).

Experiments:
Th17 cells = experiment: mRNA expression of IL-17, CCR6, SOCS3 and Foxp3 in Th17 cells by real-time PCR; format: cell-based, mouse; settings: FIG. 3B
Procedure: The real-time PCR was performed using the LightCycler 2.0 System Instrument and the reaction compounds were prepared by mixing 1 μL of each cDNA, 10 μL of premix Ex Taq as an enzyme for the initiation, and each primer pair to a final volume of 20 μL using distilled water. The reaction conditions were: reacted at 95° C. for 10 minutes, followed by a total of 50 cycles consisting of denaturation at 95° C. for 10 seconds, annealing at 60° C. for 5 seconds, and extension at 72° C. for 10 seconds. The values of cycle threshold (Ct) were analyzed and the amount of mRNA expression for each target was indicated in terms of the amount of beta-actin mRNA expression and the relative quantity. The primers used are shown below.
Splenocytes were obtained from mice, that is, the spleens removed from the mice and the spleen tissues were thinly ground using a tearing slide and the red blood cells (RBC) in the splenocytes were removed with the RBC lysis solution. Then, PBS buffer solution was added thereto, and the mixture was centrifuged, and washed to obtain splenocytes. Then, the singe cells (1 ? 10^6) isolated from the spleens were aliquoted into a 24-well plate coated with anti-CD3 antibody (1 μg/mL) were treated under the condition of capable of stimulating Th17 cells (anti-CD28 antibody (1 μg/mL), TGF-β (2 ng/ mL), IL-6 (20 ng/mL), anti-IL-4 (10 μg/mL), and anti-IFN-γ (10 μg/mL); the condition of capable of stimulating Th1 cells (anti-CD28 antibody (1 μg/mL), IL-12 (10 ng/mL), and anti-IL-4 (10 μg/mL)); or the condition of capable of stimulating Th2 cells (anti-CD28 antibody (1 μg/mL), IL-4 (10 ng/mL), and anti-IFN-γ (10 μg/mL)); and the cells were cultured for 3 days, and in particular, cultured after treating the cells with halofuginone at respective concentration and cultured. Specifically, DMSO treatment was used for the control group.
The expression of IL-17, CCR6, SOCS3, and Foxp3 in the cells under the condition of Example <2-2> was analyzed by real-time PCR as described in Example <1-6>. The primers used are shown below.

[1] = tested on: IL-17 production of T cells via IDO in dendritic cells; experiment: IL-17 ELISA in co-culture of halofuginone-stimulated dendritic cells and T cells; format: cell-based
Procedure: The dendritic cells cultured for 2 days after stimulating with halofuginone and the T cells cultured for 2 days under the condition of differentiating Th17 cells of <2-2> were co-cultured for 2 additional days, and IL-17 was measured using the supernatant by ELISA. That is, the supernatants of the cell cultures were collected and the amount of IL-17 was measured via sandwich ELISA method. To this end, first, the 96-well plate was treated with monoclonal anti-IL-17 ([…]) and reacted at 4° C. overnight, and upon reaction, non-specific binding was blocked using a blocking solution (1% BSA/PBST). Then, IL-17 in a half amount was diluted continuously and used as standards, and the supernatants of cell cultures were reacted at room temperature for 2 hours. Then, the biotinylated anti-IL-17 were reacted at room temperature for 2 hours, washed 4 times, and added with ExtraAvidin-alkaline phosphatase conjugate after dilution, and reacted at room temperature for 2 hours. Subsequently, PNPP/DEA solution was added thereto to develop color and the absorbance was measured at 405 nm.

[2] = tested on: Th17- and Treg cells in splenocytes; experiment: Th17 and Treg cells, pSTAT3 and pSTAT5 in splenocytes of CIA mice by immunostaining and confocal microscope; format: in vivo, mouse
Procedure: (§1) For the construction of a mouse model with collagen-induced arthritis (hereinafter, referred to as “CIA”), a 6-week old male DBA/1J mouse was subjected to primary immunization by intradermal injection after mixing the bovine type II collagen (hereinafter, referred to as “CII”) and complete Freud's adjuvant (CFA) in an amount of 100 μL, respectively. After a week thereafter, halofuginone was injected intraperitoneally at 3 day intervals at a concentration of 100 μg/kg and 500 μg/kg, respectively (9 weeks).
To examine the effect of halofuginone treatment in an animal model on Th17 and Treg factors, the measurement was performed using a confocal microscope after the immunostaining. Specifically, the spleens of the mice in the experimental group and control group in Examples were collected and embedded with an OCT compound, and the tissues rapidly cooled using liquid nitrogen were sliced into a thickness of 7 μm using a cryo microtome, and attached to slides. The sliced sections attached to the slides were fixed with acetone, and non-specific binding was blocked by reacting with 10% normal goat serum for 30 minutes. The first antibodies, i.e., FITC-labeled anti-Foxp3 Ab, PElabeled anti-IL-17 Ab APC-labeled anti-CD4 Ab, Allophycocyanin-labeled anti-CD25 Ab (Biolegend), biotinylated anti-CD4 Ab (BD Biosciences, San Jose, Calif., USA), were diluted in PBS (pH 7.5) at a 1:100 ratio and reacted at 4° C. overnight. On the next day, the resultant was washed with PBS and reacted with streptavidin cy-3 at room temperature for 2 hours. The stained tissues were analyzed using a confocal microscope (LSM 510 Meta. Zeiss, Gottingen, Germany), and the number of IL-17+ cells and Foxp3+ cells were scored under a microscopic observation, and the results are shown in graphs. Meanwhile, pSTAT3 and pSTAT5 were immunostained in the same manner as described above and the measurement was performed using a confocal microscope, and in particular, PE-conjugated anti-phospho-Stat3 (Y705 and S727; 1:50), and Alexa Fluor 488-conjugated anti-phospho-Stat5 (Y694; 1:100) (all from BD Biosciences) antibodies were used.

[3] = tested on: osteoclasts (TRAP positive cells) in the joint; experiment: Osteoclast differentiation potential in the joint of arthritis animal model by TRAP staining; format: in vivo, mouse; settings: joint of CIA mice, FIG. 4A
Procedure: as §1
To examine the osteoclast differentiation potential in the joint of the animal model with arthritis by TRAP staining, the marker enzyme of osteoclasts were subjected to TRAP staining using the leukocyte acid phosphatase Kit (387-A, Sigma, St. Louis, Mo., USA) according to the manufacturer's manual. The cells having at least 5 nuclei among the TRAP positive cells (red color) were regarded as osteoclasts.

[4] = CD4+ cells of splenocytes of CIA mice, immunostaining
[5] = splenocytes of CIA mice injected with halofuginone, FIG. 2A

O=C(C[C@H]1NCCC[C@@H]1O)Cn1cnc2cc(Br)c(Cl)cc2c1=O (racemic) [halofuginone]
expression of CCR6 (Th17 cells): inhibits | expression of Foxp3 (Th17 cells): increasing | expression of IL-17 (Th17 cells): inhibits | expression of SOCS (Th17 cells): increasing | IDO expression in dendritic cells ([1]; FIG. 3D legend): increase | production of IL-17 ([1]; T cells co-cultured with dendritic cells co-stimulated with 1-MT (an IDO inhibitor) and halofuginone): no decrease | production of IL-17 ([1]; T cells co-cultured with dendritic cells stimulated with halofuginone, FIG. 3D): decrease | expression of pSTAT3 [2, 4]: decreased | expression of pSTAT5 [2, 4]: increased | number of Th17 cells [2, 5]: decreased | number of Treg cells [2, 5]: increased | number of TRAP positive cells [3]: decreased
